Data taken from PubChem BioAssay AID1963832 (Molecular Pharmacology Branch, DTP, NCI, 2024).

Tested on: 885724-159-R-J1-PDC complex spheroid viability
Test: Anticancer human tumor 885724-159-R-J1-PDC patient-derived pancreatic adenocarcinoma cell line growth inhibition [POLQ]
Settings: for IC50: curve of first compound; for viability, T/C: stronger effect = lower value
Description: Multicellular complex tumor spheroid response to Polymerase (POL) inhibitors (novobiocin, ART-558, RP6685) in combination with a variety of drugs and investigational agents in selected tumor cell lines
The POL inhibitors (novobiocin, ART-558, and RP6685) were evaluated both individually and in combination with standard of care and investigational anticancer small molecules within a complex spheroid model of solid tumors. . Complex spheroids include a stromal component modeled by human endothelial cells (HUVEC) and fibroblasts modeled by human mesenchymal stem cells (MSCs). The concentration ranges selected for each drug and investigational agent were based upon clinically achievable concentrations if the clinical Cmax of the agent was known.
Compounds. The drugs and investigational agents: novobiocin (NSC847541), ART-558 (NSC835418), RP-6685 (NSC848927), peposertib (NSC802822), ceralasertib (NSC780249), elimusertib (NSC800525), camonsertib (NSC841442), AZD-1390 (NSC803789), olaparib (NSC753686), talazoparib (NSC767125), rucaparib (NSC756644), sotorasib (NSC818433), MRTX-1133 (NSC836407), SN-38 (NSC673596), topotecan (NSC609699), epotoside (NSC141540), doxorubicin (NSC123127), gemcitabine (NSC613327), 5-fluorouracil (NSC19893), paclitaxel (NSC125973), vemurafenib (NSC761431), MSA-2 (NSC828583), SN-011 (NSC837082), adavosertib (NSC754352), prexasertib (NSC758257), carboplatin (NSC241240) and oxaliplatin (NSC266046), were obtained from the National Cancer Institute (NCI) Developmental Therapeutics Program Chemical Repository (21). The FDA-approved anticancer drug set is available from the Developmental Therapeutics Program at https://dtp.cancer.gov/organization/dscb/obtaining/. […] The stock solutions were prepared in dimethyl sulfoxide (DMSO, Sigma-Aldrich, St. Louis, MO, cat. D2650), except for the platinum compounds which were prepared in saline (Quality Biological, Gaithersburg, MD, cat. 114-055-101), at 800-fold the tested concentration and stored at -70 degrees C prior to their use. All drugs and investigational agents were tested over a range starting from a high concentration at or near the clinical Cmax and decreasing in half-log increments. If the clinical Cmax for an agent had not been determined, the highest concentration tested was 10 microM, except for SN-38, which was tested at a high concentration of 1 microM.
Cell Culture. All cells were maintained in an incubator at 37 degrees C and 5% CO2 with 95% humidity. The PDC lines were cultured according to standard operating procedures established by the NCI PDMR (https://pdmr.cancer.gov). Table 3 of the manuscript, lists the cell lines along with the number of the three cell types plated to form the mct-spheroids and media for tumor cell growth. After thawing, all PDC lines, except 997537-175-T-J1-PDC and 415267-285-R-J2-PDC, were cultured in Matrigel-coated flasks prepared with a working solution of 1X Ham's F-12 nutrient mix, without supplementation (Thermo Fisher Scientific, cat. 11765054), 100 U/mL penicillin-streptomycin (Thermo Fisher Scientific, cat. 15140122), and 2.5% Matrigel (Corning Inc., Corning, NY, cat. 354248) for the first three passages. The two PDC lines 997537-175-T-J1-PDC and 415267-285-R-J2-PDC were cultured on uncoated flasks. The 857933-349-R-J2-PDC line was cultured in 6C/Colon 1B media containing advanced DMEM/F-12 (Thermo Fisher Scientific, cat. 12634028), 10 mM HEPES (Thermo Fisher Scientific, cat. 15630080), 1X GlutaMAX supplement (Thermo Fisher Scientific, cat. 35050061), 0.1 mg/mL primocin (InvivoGen, San Diego, CA, cat. ant-pm-2), 10% defined fetal bovine serum, heat inactivated (HyClone Laboratories Inc., Logan, UT, cat. SH30070.03HI), 50% L-WRN conditioned media (ATCC, cat. CRL-3276), 1.25 mM N-Acetyl-L-cysteine (Sigma-Aldrich, cat. A9165), 10 mM nicotinamide (Sigma-Aldrich, cat. N0636), 1X B-27 supplement (Thermo Fisher Scientific, cat. 17504044), 1X N-2 supplement (Thermo Fisher Scientific, cat. […]

[1] = second compound 0.0316 µM, first compound 0.0316 µM
[2] = second compound 0.0316 µM, first compound 0.1 µM
[3] = second compound 0.0316 µM, first compound 0.316 µM
[4] = second compound 0.0316 µM, first compound 1 µM
[5] = second compound 0.1 µM, first compound 0.0316 µM
[6] = second compound 0.1 µM, first compound 0.1 µM
[7] = second compound 0.1 µM, first compound 0.316 µM
[8] = second compound 0.1 µM, first compound 1 µM
[9] = second compound 0.316 µM, first compound 0.0316 µM
[10] = second compound 0.316 µM, first compound 0.1 µM
[11] = second compound 0.316 µM, first compound 0.316 µM
[12] = second compound 0.316 µM, first compound 1 µM
[13] = second compound 1 µM, first compound 0.0316 µM
[14] = second compound 1 µM, first compound 0.1 µM
[15] = second compound 1 µM, first compound 0.316 µM
[16] = second compound 1 µM, first compound 1 µM
[17] = second compound 3.16 µM, first compound 0.0316 µM
[18] = second compound 3.16 µM, first compound 0.1 µM
[19] = second compound 3.16 µM, first compound 0.316 µM
[20] = second compound 3.16 µM, first compound 1 µM
[21] = second compound 10 µM, first compound 0.0316 µM
[22] = second compound 10 µM, first compound 0.1 µM
[23] = second compound 10 µM, first compound 0.316 µM
[24] = second compound 10 µM, first compound 1 µM
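Note: spheroids exposed to compounds for 7 days.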

CCc1c2c(nc3ccc(O)cc13)-c1cc3c(c(=O)n1C2)COC(=O)[C@]3(O)CC + COC1C(OC(N)=O)C(O)C(Oc2ccc3c(O)c(NC(=O)c4ccc(O)c(CC=C(C)C)c4)c(=O)oc3c2C)OC1(C)C
IC50 (second compound 0.0316 µM): 0.0422 µM
IC50 (second compound 0.1 µM): 0.0489 µM
IC50 (second compound 0.316 µM): 0.0383 µM
IC50 (second compound 1 µM): 0.0411 µM
IC50 (second compound 3.16 µM): 0.0353 µM
IC50 (second compound 10 µM): 0.0358 µM
viability, T/C (second compound 0.0316 µM, first compound 0.00316 µM): 66.3%
viability, T/C (second compound 0.0316 µM, first compound 0.01 µM): 58.3%
viability, T/C [1]: 44.8%
viability, T/C [2]: 47.9%
viability, T/C [3]: 29%
viability, T/C [4]: 5.01%
viability, T/C (second compound 0.1 µM, first compound 0.00316 µM): 73.1%
viability, T/C (second compound 0.1 µM, first compound 0.01 µM): 58.2%
viability, T/C [5]: 47.3%
viability, T/C [6]: 49.9%
viability, T/C [7]: 28.7%
viability, T/C [8]: 4.25%
viability, T/C (second compound 0.316 µM, first compound 0.00316 µM): 80.1%
viability, T/C (second compound 0.316 µM, first compound 0.01 µM): 54.3%
viability, T/C [9]: 48.6%
viability, T/C [10]: 45.7%
viability, T/C [11]: 30.9%
viability, T/C [12]: 5%
viability, T/C (second compound 1 µM, first compound 0.00316 µM): 75.9%
viability, T/C (second compound 1 µM, first compound 0.01 µM): 60.4%
viability, T/C [13]: 44.1%
viability, T/C [14]: 49.9%
viability, T/C [15]: 27.6%
viability, T/C [16]: 4.79%
viability, T/C (second compound 3.16 µM, first compound 0.00316 µM): 76.4%
viability, T/C (second compound 3.16 µM, first compound 0.01 µM): 59%
viability, T/C [17]: 45.1%
viability, T/C [18]: 44.3%
viability, T/C [19]: 30%
viability, T/C [20]: 4.76%
viability, T/C (second compound 10 µM, first compound 0.00316 µM): 68.7%
viability, T/C (second compound 10 µM, first compound 0.01 µM): 52.3%
viability, T/C [21]: 48.9%
viability, T/C [22]: 43.5%
viability, T/C [23]: 27.5%
viability, T/C [24]: 4.27%

CNCc1ccc(-c2[nH]c3cc(F)cc4c3c2CCNC4=O)cc1 + COC1C(OC(N)=O)C(O)C(Oc2ccc3c(O)c(NC(=O)c4ccc(O)c(CC=C(C)C)c4)c(=O)oc3c2C)OC1(C)C
IC50 (second compound 0.0316 µM): > 10 µM
IC50 (second compound 0.1 µM): > 10 µM
IC50 (second compound 0.316 µM): > 10 µM
IC50 (second compound 1 µM): > 10 µM
IC50 (second compound 3.16 µM): > 10 µM
IC50 (second compound 10 µM): > 10 µM
viability, T/C [1]: 95.9%
viability, T/C [2]: 96.7%
viability, T/C [3]: 95.4%
viability, T/C [4]: 94.7%
viability, T/C (second compound 0.0316 µM, first compound 3.16 µM): 93.2%
viability, T/C (second compound 0.0316 µM, first compound 10 µM): 75.9%
viability, T/C [5]: 96.4%
viability, T/C [6]: 96.5%
viability, T/C [7]: 93.5%
viability, T/C [8]: 108%
viability, T/C (second compound 0.1 µM, first compound 3.16 µM): 92.7%
viability, T/C (second compound 0.1 µM, first compound 10 µM): 84%
viability, T/C [9]: 101%
viability, T/C [10]: 96.4%
viability, T/C [11]: 93.5%
viability, T/C [12]: 95.5%
viability, T/C (second compound 0.316 µM, first compound 3.16 µM): 91%
viability, T/C (second compound 0.316 µM, first compound 10 µM): 81.2%
viability, T/C [13]: 102%
viability, T/C [14]: 91.5%
viability, T/C [15]: 87.2%
viability, T/C [16]: 85.4%
viability, T/C (second compound 1 µM, first compound 3.16 µM): 92.4%
viability, T/C (second compound 1 µM, first compound 10 µM): 78.3%
viability, T/C [17]: 93.3%
viability, T/C [18]: 88.2%
viability, T/C [19]: 90.3%
viability, T/C [20]: 84.2%
viability, T/C (second compound 3.16 µM, first compound 3.16 µM): 89%
viability, T/C (second compound 3.16 µM, first compound 10 µM): 82.5%
viability, T/C [21]: 102%
viability, T/C [22]: 94.8%
viability, T/C [23]: 84%
viability, T/C [24]: 87.7%
viability, T/C (second compound 10 µM, first compound 3.16 µM): 88.2%
viability, T/C (second compound 10 µM, first compound 10 µM): 88.9%
